# Assay results: patent EP0097439A2, “A crystalline prostaglandin salt” (THE UPJOHN COMPANY, priority 1982, dated 1984)
# Where a name gives a salt, the structure may show the parent alone. Read-outs that look alike come from different tables or passages of the source.
# Legend:
# [1] = Water content / hygroscopicity of the crystalline solid; assay type: physicochemical
# Protocol: All solvents used in this example are degassed with nitrogen using a gas dispersion tube for 15 min prior to use. To a stirred solution of 4.82 g of 9-deoxo-16,16-dimethyl-9-methylene-PGE2 in 50 ml of methanol is added a solution of 880 mg of potassium carbonate in 15 ml of water. The reaction mixture is then allowed to stand for 5 min at 25°C and then concentrated under reduced pressure at 35°C. Eight 250 ml portions of anhydrous tetrahydrofuran are added and evaporated to insure complete removal of water. The residue, a pale yellow foam, is dissolved in 15 ml of methanol and added dropwise under a nitrogen atmosphere with vigorous stirring to one liter of diethyl ether. The initial cloudy suspension yields a gum-like residue on the walls of the reaction vessel after about 1 hr. Continued vigorous stirring for 24 hr leads to gradual crystallization and resuspension as a uniform, easily filterable solid. This suspension is then filtered using a medium porosity sintered glass funnel. The solids are washed with 15 ml of fresh diethyl ether at 25°C. After drying for 2 hr in a vacuum desiccator at 25°C, a colorless free-flowing crystalline solid, 5.13 g, is obtained, pure crystalline 9-deoxo-16,16-dimethyl-9-methylene-PGE2 potassium salt. IR absorptions (cm^-1) are observed at 3134, 1652, 1572, 1467, 1392, 1337, 1364, 1344, 1102, 1024, 974, and 883. […]
# [2] = Plasma levels of 9-deoxo-16,16-dimethyl-9-methylene-PGE2 by radioimmunoassay after insertion of a suppository; assay type: in vivo, Rhesus monkeys (Macaca mulatta); conditions: rhesus monkey, plasma, 30 mg, plasma, read-out: Drug Levels
# Excerpt: A. Midtrimester pregnant female Rhesus monkeys (Macaca mulatta) are used. (The first day of menstrual bleeding is designated Day 1 of the menstrual cycle; the first day a female is placed with a male for breeding is designated Day 1 of pregnancy. Pregnancy is confirmed by abdominal palpation of the uterus.)
# Blood samples are collected into heparinized syringes at specified times following insertion of a suppository in pregnant or non- pregnant monkeys. Plasma is extracted and assayed for 9-deoxo-16,16-dimethyl-9-methylene-PGE2 content by radioimmunoassay.
# C. Six suppository lots are prepared (4), each containing 9- deoxo-16,16-dimethyl-9-methylene-PGE2 or its crystalline potassium salt (Examples 1 and 2). Two lots are made with Witepsol H15 alone as the suppository base, two with Witepsol HIS wax plus 2% colloidal silicon dioxide (CSD) and two with Witepsol H15 plus 2% CSD plus 10% triacetin. Suppositories are prepared using Witepsol H15 suppository wax. Free acid or potassium salt is dispersed in the hot wax using a homogenizer. Two percent colloidal silicon dioxide (CSD) is mixed in by further homogenization. In the third formulation, triacetin (10%) is added before the CSD and then homogenized for one minute. Suppositories are formed in 800 mg aluminum molds and are stored at 4°C until used.
# D. The plasma levels of 9-deoxo-16,16-d1methy1-9-methy1ene-PGE2 in monkeys treated with 6 formulations containing either 9-deoxo-16,16-dimethyl-9-methylene-PGE2 free acid or potassium salt are shown in Tables 1-6. In general, higher blood levels are measured in pregnant Rhesus monkeys than in non-pregnant monkeys.
# [3] = Monkey #4, 30 mg Potassium Salt in H15 Suppositories
# [4] = Monkey #5, 30 mg Potassium Salt in H15 Suppositories
# [5] = Monkey #6 (pregnant animal with uterine recording), 30 mg Potassium Salt in H15 Suppositories
# [6] = Monkey #10, 30 mg Potassium Salt in H15 Plus 2% CSD Suppositories
# [7] = Monkey #11, 30 mg Potassium Salt in H15 Plus 2% CSD Suppositories
# [8] = Monkey #12 (pregnant animal with uterine recording), 30 mg Potassium Salt in H15 Plus 2% CSD Suppositories
# [9] = Monkey #16, 30 mg Potassium Salt in H15 Plus 2% CSD + 10% Triacetin Suppositories
# [10] = Monkey #17, 30 mg Potassium Salt in H15 Plus 2% CSD + 10% Triacetin Suppositories
# [11] = Monkey #18, 30 mg Potassium Salt in H15 Plus 2% CSD + 10% Triacetin Suppositories
smiles,measurement,setting,value
"C=C1C[C@@H](O)[C@H](/C=C/[C@@H](O)C(C)(C)CCCC)[C@H]1C/C=C\CCCC(=O)O [Potassium Salt, 9-deoxo-16,16-dimethyl-9-methylene-PGE2 potassium salt]",Water content,[1]; after 5 days at ambient humidity,0.16%
same,hygroscopicity,[1]; crystalline solid,non-hygroscopic
same,concentration at 0.25 h,[2]; [3],128 ng/mL
same,concentration at 0.5 h,"[2]; Monkey #4, 0.5 Hours, 30 mg Potassium Salt in H15 Suppositories",3.72 ng/mL
same,concentration at 1.5 h,[2]; [3],0.41 ng/mL
same,concentration at 2 h,[2]; [3],0.86 ng/mL
same,concentration at 3 h,[2]; [3],7.52 ng/mL
same,concentration at 4 h,[2]; [3],8.39 ng/mL
same,concentration at 6 h,[2]; [3],17.9 ng/mL
same,concentration at 24 h,[2]; [3],21.7 ng/mL
same,concentration at 0.25 h,[2]; [4],10.9 ng/mL
same,concentration at 1 h,[2]; [4],1.42 ng/mL
same,concentration at 1.5 h,[2]; [4],5.91 ng/mL
same,concentration at 2 h,[2]; [4],11.5 ng/mL
same,concentration at 3 h,[2]; [4],14.2 ng/mL
same,concentration at 4 h,[2]; [4],22.9 ng/mL
same,concentration at 6 h,[2]; [4],25 ng/mL
same,concentration at 24 h,[2]; [4],16.2 ng/mL
same,concentration at 0.25 h,[2]; [5],76.6 ng/mL
same,concentration at 0.5 h,"[2]; Monkey #6 (pregnant animal with uterine recording), 0.5 Hours, 30 mg Potassium Salt in H15 Suppositories",68.4 ng/mL
same,concentration at 1 h,[2]; [5],29.6 ng/mL
same,concentration at 1.5 h,[2]; [5],77.3 ng/mL
same,concentration at 2 h,[2]; [5],28.4 ng/mL
same,concentration at 3 h,[2]; [5],41.7 ng/mL
same,concentration at 4 h,[2]; [5],42.8 ng/mL
same,concentration at 6 h,[2]; [5],20.2 ng/mL
same,concentration at 24 h,[2]; [5],7.77 ng/mL
same,concentration at 0.25 h,[2]; [6],20.4 ng/mL
same,concentration at 1 h,[2]; [6],1.5 ng/mL
same,concentration at 1.5 h,[2]; [6],1.7 ng/mL
same,concentration at 2 h,[2]; [6],3.57 ng/mL
same,concentration at 3 h,[2]; [6],12.4 ng/mL
same,concentration at 4 h,[2]; [6],20.7 ng/mL
same,concentration at 6 h,[2]; [6],53.8 ng/mL
same,concentration at 24 h,[2]; [6],16 ng/mL
same,concentration at 0.5 h,"[2]; Monkey #10, .5 Hours, 30 mg Potassium Salt in H15 Plus 2% CSD Suppositories",2.39 ng/mL
same,concentration at 0.25 h,[2]; [7],19.8 ng/mL
same,concentration at 1 h,[2]; [7],6.61 ng/mL
same,concentration at 1.5 h,[2]; [7],8.13 ng/mL
same,concentration at 2 h,[2]; [7],9.8 ng/mL
same,concentration at 3 h,[2]; [7],9.48 ng/mL
same,concentration at 4 h,[2]; [7],18.7 ng/mL
same,concentration at 6 h,[2]; [7],28.7 ng/mL
same,concentration at 24 h,[2]; [7],23.4 ng/mL
same,concentration at 0.5 h,"[2]; Monkey #11, .5 Hours, 30 mg Potassium Salt in H15 Plus 2% CSD Suppositories",14 ng/mL
same,concentration at 0.25 h,[2]; [8],104 ng/mL
same,concentration at 1 h,[2]; [8],40.9 ng/mL
same,concentration at 1.5 h,[2]; [8],91.1 ng/mL
same,concentration at 2 h,[2]; [8],66.5 ng/mL
same,concentration at 3 h,[2]; [8],51.5 ng/mL
same,concentration at 4 h,[2]; [8],36.1 ng/mL
same,concentration at 6 h,[2]; [8],22.5 ng/mL
same,concentration at 24 h,[2]; [8],6.04 ng/mL
same,concentration at 0.5 h,"[2]; Monkey #12 (pregnant animal with uterine recording), .5 Hours, 30 mg Potassium Salt in H15 Plus 2% CSD Suppositories",55.7 ng/mL
same,concentration at 0.25 h,[2]; [9],7.45 ng/mL
same,concentration at 0.5 h,"[2]; Monkey #16, 0.5 Hours, 30 mg Potassium Salt in H15 Plus 2% CSD + 10% Triacetin Suppositories",7 ng/mL
same,concentration at 1 h,[2]; [9],12.6 ng/mL
same,concentration at 1.5 h,[2]; [9],19.9 ng/mL
same,concentration at 2 h,[2]; [9],40.2 ng/mL
same,concentration at 3 h,[2]; [9],45.5 ng/mL
same,concentration at 4 h,[2]; [9],31.4 ng/mL
same,concentration at 6 h,[2]; [9],34.5 ng/mL
same,concentration at 24 h,[2]; [9],14.2 ng/mL
same,concentration at 0.25 h,[2]; [10],7.98 ng/mL
same,concentration at 0.5 h,"[2]; Monkey #17, 0.5 Hours, 30 mg Potassium Salt in H15 Plus 2% CSD + 10% Triacetin Suppositories",2.15 ng/mL
same,concentration at 1 h,[2]; [10],1.27 ng/mL
same,concentration at 1.5 h,[2]; [10],1.86 ng/mL
same,concentration at 2 h,[2]; [10],1.75 ng/mL
same,concentration at 3 h,[2]; [10],20.1 ng/mL
same,concentration at 4 h,[2]; [10],3.13 ng/mL
same,concentration at 6 h,[2]; [10],6.97 ng/mL
same,concentration at 24 h,[2]; [10],21.9 ng/mL
same,concentration at 0.25 h,[2]; [11],56.8 ng/mL
same,concentration at 0.5 h,"[2]; Monkey #18, 0.5 Hours, 30 mg Potassium Salt in H15 Plus 2% CSD + 10% Triacetin Suppositories",207 ng/mL
same,concentration at 1 h,[2]; [11],64.4 ng/mL
same,concentration at 1.5 h,[2]; [11],38.3 ng/mL
same,concentration at 2 h,[2]; [11],87.2 ng/mL
same,concentration at 3 h,[2]; [11],47.8 ng/mL
same,concentration at 4 h,[2]; [11],35.5 ng/mL
same,concentration at 6 h,[2]; [11],33.9 ng/mL
same,concentration at 24 h,[2]; [11],8.31 ng/mL
